The values that follow are results of earlier work, collected in patent US20030012825A1, “Metallized molecule therapies” (priority 2000, published 2003).

For data set [1] the following is noted: in vivo.
The next data set has as its system Metrazol-induced seizure. To be noted: subcutaneously.
Data set [2] relates to Maximal Electroshock-induced seizure. To be noted: subcutaneously.
The subject of data set [3] is flow-mediated vasodilation. To be noted: in vivo.
For data set [4] the following is noted: in vivo. This is another data set of the same source.

As to `COC1=C(OC)C(=O)C(C/C=C(\C)CC/C=C(\C)CC/C=C(\C)CC/C=C(\C)CC/C=C(\C)CC/C=C(\C)CC/C=C(\C)CC/C=C(\C)CC/C=C(\C)CCC=C(C)C)=C(C)C1=O` [Coenzyme Q10], the EEG brain activity entry in data set [1] is given as “lowering of EEG”.

Regarding `O=C(O)c1ccccc1[O-].O=C(O)c1ccccc1[O-].[Cu+2]` [Cu(II) (salicylate) 2], the “dose at which anticonvulsant activity is initiated, preventing the Metrazol-induced seizure” value with Metrazol-induced seizure is 100 milligrams per kilogram of bodyweight. The “dose at which anticonvulsant activity is initiated, preventing the Maximal Electroshock-induced seizure” value in data set [2] is listed as 600 milligrams per kilogram of bodyweight.

For the molecule `[Cl][Cu][Cl]` [copper chloride], the “effect on flow-mediated vasodilation” value in data set [3] was “improve flow-mediated vasodilation”.

As for `[Cu+]` [copper ions], in the data set with HIV, the “effect on intracellular HIV replication” value is listed as “inhibit intracellular HIV replication”.

Consider `N[C@@H](Cc1ccc(O)cc1)C(=O)O` [tyrosine], for which the “ability to pass the blood-brain barrier” value in data set [4] was “unique ability of passing the blood-brain barrier”.
